Data from US9796711B2, “Substituted pyrazolo[3,4-b]pyridin-6-carboxylic acids and method of use” (AbbVie S.àr.l., priority 2015, dated 2017).
pEC50: −log10 of the molar value.

How the values were obtained:
ΔF508-CFTR [1] = target: T1, ΔF508-CFTR (Homo sapiens, UniProt P13569, DEL508-508); assay: CFTR cell surface levels using HRP-tagged ΔF508-CFTR expressing CFBE cells, in the presence of a co-corrector; type: cell-based; settings: HRP-tagged ΔF508-CFTR expressing CFBE cells, in the presence of 3 μM co-corrector; for pEC50: read-out: EC50
T1 construct: host or cells: CFBE41o-, doxycycline-inducible
T1 sequence (P13569 with tags, fused parts or gaps DEL508-508): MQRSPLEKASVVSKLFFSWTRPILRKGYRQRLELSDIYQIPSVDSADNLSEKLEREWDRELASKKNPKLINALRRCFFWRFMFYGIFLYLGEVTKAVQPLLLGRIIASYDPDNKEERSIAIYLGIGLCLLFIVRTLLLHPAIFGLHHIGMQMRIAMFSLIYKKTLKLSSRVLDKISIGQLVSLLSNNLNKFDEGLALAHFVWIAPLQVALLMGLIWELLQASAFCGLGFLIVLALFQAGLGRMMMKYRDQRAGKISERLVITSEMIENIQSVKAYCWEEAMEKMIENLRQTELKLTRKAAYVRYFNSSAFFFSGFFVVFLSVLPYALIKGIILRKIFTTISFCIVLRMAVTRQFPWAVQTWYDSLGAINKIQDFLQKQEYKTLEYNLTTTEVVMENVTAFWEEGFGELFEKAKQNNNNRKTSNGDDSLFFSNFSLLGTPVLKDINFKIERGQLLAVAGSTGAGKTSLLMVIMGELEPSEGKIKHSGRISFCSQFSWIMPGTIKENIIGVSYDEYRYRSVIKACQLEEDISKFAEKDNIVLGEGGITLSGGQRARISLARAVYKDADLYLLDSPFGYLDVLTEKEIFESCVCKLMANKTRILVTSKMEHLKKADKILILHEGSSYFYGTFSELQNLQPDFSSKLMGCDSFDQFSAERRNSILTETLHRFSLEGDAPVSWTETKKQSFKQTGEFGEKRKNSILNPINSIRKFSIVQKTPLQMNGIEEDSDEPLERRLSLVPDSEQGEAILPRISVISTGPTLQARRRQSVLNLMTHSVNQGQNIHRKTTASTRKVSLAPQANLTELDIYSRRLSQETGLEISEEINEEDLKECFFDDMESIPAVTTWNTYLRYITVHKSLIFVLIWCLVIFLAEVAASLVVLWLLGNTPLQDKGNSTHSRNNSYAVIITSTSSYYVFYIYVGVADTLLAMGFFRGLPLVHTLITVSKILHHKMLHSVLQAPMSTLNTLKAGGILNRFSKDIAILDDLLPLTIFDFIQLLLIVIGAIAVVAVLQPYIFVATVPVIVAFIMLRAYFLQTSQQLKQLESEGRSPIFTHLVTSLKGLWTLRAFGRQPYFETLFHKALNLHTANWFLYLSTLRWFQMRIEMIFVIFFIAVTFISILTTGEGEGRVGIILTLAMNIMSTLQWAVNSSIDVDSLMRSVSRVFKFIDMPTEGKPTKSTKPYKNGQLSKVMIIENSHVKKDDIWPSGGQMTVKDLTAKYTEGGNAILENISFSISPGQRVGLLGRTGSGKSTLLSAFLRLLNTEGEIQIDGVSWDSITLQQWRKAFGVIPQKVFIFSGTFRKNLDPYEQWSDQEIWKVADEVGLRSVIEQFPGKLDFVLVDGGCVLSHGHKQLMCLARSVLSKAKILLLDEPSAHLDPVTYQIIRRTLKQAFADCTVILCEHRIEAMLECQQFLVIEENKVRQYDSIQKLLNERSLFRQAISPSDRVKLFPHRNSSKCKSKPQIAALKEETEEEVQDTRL
Summary of the method: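 Cells were seeded with 0.5 μg/mL doxycycline and held 68 h at 37 °C. Test compounds plus 3 μM co-corrector (final 0.1% DMSO) were then added for 20 h at 33 °C. Washed cells received HRP substrate, and luminescence was normalized between DMSO and 3 μM co-corrector controls.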

ΔF508-CFTR [2] = target: T1, ΔF508-CFTR; assay: CFTR cell surface levels using HRP-tagged ΔF508-CFTR expressing CFBE cells, intrinsic corrector capacity; type: cell-based; settings: HRP-tagged ΔF508-CFTR CFBE41o- cells, compounds alone (intrinsic corrector capacity), 20 hours at 33° C.; for % Activation: positive control 3 μM corrector; for pEC50: read-out: EC50
Summary of the method: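 Here the cells express ΔF508-CFTR with horseradish peroxidase inserted in extracellular loop 4, so only rescued channel at the surface gives luminescent signal. Compounds act on their own, 20 h at the reduced temperature of 33 °C; values are percent activity relative to DMSO and a 3 μM corrector.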

SMILES | % Activation (ΔF508-CFTR [1]) | pEC50 (ΔF508-CFTR [1]) | % Activation (ΔF508-CFTR [2]) | pEC50 (ΔF508-CFTR [2])
CC(=O)N1CCC2CN(c3cc(C(=O)O)nc4c3c(C(C)C)nn4-c3cccc(C)c3)CCC21 (stereo not shown) [compound 255, 4-(1-acetyloctahydro-5H-pyrrolo[3,2-c]pyridin-5-yl)-1-(3-methylphenyl)-3-(propan-2-yl)-1H-pyrazolo[3,4-b]pyridine-6-carboxylic acid] | 302.97% | 6.53 | 120.77% | 6.36
Cc1cccc(-n2nc(C(C)C)c3c(N4CCC5C(CCN5CC#N)C4)cc(C(=O)O)nc32)c1 (stereo not shown) [compound 256, 4-[1-(cyanomethyl)octahydro-5H-pyrrolo[3,2-c]pyridin-5-yl]-1-(3-methylphenyl)-3-(propan-2-yl)-1H-pyrazolo[3,4-b]pyridine-6-carboxylic acid] | 362.25% | 5.69 | 180% | 5.48
Cc1cccc(-n2nc(C(C)C)c3c(N4CCC(S(C)(=O)=O)CC4)cc(C(=O)O)nc32)c1 [compound 257, 4-[4-(methanesulfonyl)piperidin-1-yl]-1-(3-methylphenyl)-3-(propan-2-yl)-1H-pyrazolo[3,4-b]pyridine-6-carboxylic acid] | 440.2% | 6.10 | 260.4% | 5.60
Cc1cccc(-n2nc(C(C)C)c3c(N4CC5(CCOCC5)C4)cc(C(=O)O)nc32)c1 [compound 258, 1-(3-methylphenyl)-4-(7-oxa-2-azaspiro[3.5]nonan-2-yl)-3-(propan-2-yl)-1H-pyrazolo[3,4-b]pyridine-6-carboxylic acid] | 364.3% | 6.04 | 169.7% | 5.89
CC(C)c1nn(-c2cccc(N3CCCC3)c2)c2nc(C(=O)O)cc(-c3cnc(N4CCC(C#N)CC4)nc3)c12 [compound 259, 4-[2-(4-cyanopiperidin-1-yl)pyrimidin-5-yl]-3-(propan-2-yl)-1-[3-(pyrrolidin-1-yl)phenyl]-1H-pyrazolo[3,4-b]pyridine-6-carboxylic acid] | 673.9% | 5.99 | 438.95% | 5.95
CC(C)c1nn(-c2cccc(C(F)(F)F)c2)c2nc(C(=O)O)cc(-c3ccc(N4CCC(C#N)CC4)nc3)c12 [compound 260, 4-[6-(4-cyanopiperidin-1-yl)pyridin-3-yl]-3-(propan-2-yl)-1-[3-(trifluoromethyl)phenyl]-1H-pyrazolo[3,4-b]pyridine-6-carboxylic acid] | 554.15% | 6.29 | 326.4% | 6.11
CC(C)c1nn(-c2cccc(C(F)(F)F)c2)c2nc(C(=O)O)cc(-c3ccc(N4CCC(C#N)CC4)cc3)c12 [compound 261, 4-[4-(4-cyanopiperidin-1-yl)phenyl]-3-(propan-2-yl)-1-[3-(trifluoromethyl)phenyl]-1H-pyrazolo[3,4-b]pyridine-6-carboxylic acid] | 519.37% | 6.26 | 314.07% | 6.15
Cc1cccc(-n2nc(C(C)C)c3c(N4CCC5(CCOCC5)C4)cc(C(=O)O)nc32)c1 [compound 262, 1-(3-methylphenyl)-4-(8-oxa-2-azaspiro[4.5]decan-2-yl)-3-(propan-2-yl)-1H-pyrazolo[3,4-b]pyridine-6-carboxylic acid] | 375.95% | 6.07 | 164.4% | 6.04
COC1CCN(c2cc(C(=O)O)nc3c2c(C(C)C)nn3C2CCCCC2)CC1 [compound 264, 1-cyclohexyl-4-(4-methoxypiperidin-1-yl)-3-(propan-2-yl)-1H-pyrazolo[3,4-b]pyridine-6-carboxylic acid] | 428.47% | 6.33 | 213.88% | 6.13
CC(C)c1nn(C2CCCCC2)c2nc(C(=O)O)cc(N3CCCCC3)c12 [compound 265, 1-cyclohexyl-4-(piperidin-1-yl)-3-(propan-2-yl)-1H-pyrazolo[3,4-b]pyridine-6-carboxylic acid] | 397.8% | 5.86 | 132.05% | 5.90
CC(C)c1nn(C2CCCCC2)c2nc(C(=O)O)cc(N3CCC(CO)CC3)c12 [compound 266, 1-cyclohexyl-4-[4-(hydroxymethyl)piperidin-1-yl]-3-(propan-2-yl)-1H-pyrazolo[3,4-b]pyridine-6-carboxylic acid] | 405.3% | 5.98 | 197.55% | 5.90
CC(C)c1nn(-c2cccc(N(C)C)n2)c2nc(C(=O)O)cc(-c3ccc(N4CCOCC4)cc3)c12 [compound 267, 1-[6-(dimethylamino)pyridin-2-yl]-4-[4-(morpholin-4-yl)phenyl]-3-(propan-2-yl)-1H-pyrazolo[3,4-b]pyridine-6-carboxylic acid] | 498.35% | 6.38 | 318.9% | 6.09
CC(C)c1nn(-c2cccc(OC(F)(F)F)c2)c2nc(C(=O)O)cc(-c3ccc(N4CCOCC4)cc3)c12 [compound 269, 4-[4-(morpholin-4-yl)phenyl]-3-(propan-2-yl)-1-[3-(trifluoromethoxy)phenyl]-1H-pyrazolo[3,4-b]pyridine-6-carboxylic acid] | 452.33% | 6.41 | 264.3% | 6.24
CC(C)c1nn(-c2cccc(N(C)C)c2)c2nc(C(=O)O)cc(N3CCC(C(F)(F)F)C3)c12 (stereo not shown) [compound 270, 1-[3-(dimethylamino)phenyl]-3-(propan-2-yl)-4-[3-(trifluoromethyl)pyrrolidin-1-yl]-1H-pyrazolo[3,4-b]pyridine-6-carboxylic acid] | 430.4% | 6.28 | 236.02% | 6.16
Cc1cccc(-n2nc(C(C)C)c3c(N4CCC5(C4)CC5(F)F)cc(C(=O)O)nc32)c1 (stereo not shown) [compound 271, 4-(1,1-difluoro-5-azaspiro[2.4]heptan-5-yl)-1-(3-methylphenyl)-3-(propan-2-yl)-1H-pyrazolo[3,4-b]pyridine-6-carboxylic acid] | 323.5% | 6.40 | 144.2% | 6.03
Cc1cccc(-n2nc(C(C)C)c3c(N4CCC(S(C)(=O)=O)C4)cc(C(=O)O)nc32)c1 (stereo not shown) [compound 272, 4-[3-(methanesulfonyl)pyrrolidin-1-yl]-1-(3-methylphenyl)-3-(propan-2-yl)-1H-pyrazolo[3,4-b]pyridine-6-carboxylic acid] | 319.6% | 5.48 | 135.5% | 5.48
Cc1cccc(-n2nc(C(C)C)c3c(N4CC5(CCC5)C4)cc(C(=O)O)nc32)c1 [compound 273, 4-(2-azaspiro[3.3]heptan-2-yl)-1-(3-methylphenyl)-3-(propan-2-yl)-1H-pyrazolo[3,4-b]pyridine-6-carboxylic acid] | 311.05% | 6.01 | 100.16% | 5.99
Cc1cccc(-n2nc(C(C)C)c3c(N4CC5(CCCCO5)C4)cc(C(=O)O)nc32)c1 [compound 274, 1-(3-methylphenyl)-4-(5-oxa-2-azaspiro[3.5]nonan-2-yl)-3-(propan-2-yl)-1H-pyrazolo[3,4-b]pyridine-6-carboxylic acid] | 301.45% | 6.04 | 114.64% | 5.97
COCCN(CCOC)c1ccc(-c2cc(C(=O)O)nc3c2c(C(C)C)nn3C2CCCCC2)cn1 [compound 275, 4-{6-[bis(2-methoxyethyl)amino]pyridin-3-yl}-1-cyclohexyl-3-(propan-2-yl)-1H-pyrazolo[3,4-b]pyridine-6-carboxylic acid] | 371.35% | 6.13 | 173.8% | 6.03
CC(C)c1nn(C2CCCCC2)c2nc(C(=O)O)cc(-c3ccc(N(C)C4CCOC4)nc3)c12 (stereo not shown) [compound 276, 1-cyclohexyl-4-{6-[methyl(oxolan-3-yl)amino]pyridin-3-yl}-3-(propan-2-yl)-1H-pyrazolo[3,4-b]pyridine-6-carboxylic acid] | 407.8% | 6.43 | 206.93% | 6.30
CN(c1ncc(-c2cc(C(=O)O)nc3c2c(C2CCC2)nn3-c2cccc(N3CCCC3)c2)cn1)C1CCOCC1 [compound 277, 3-cyclobutyl-4-{2-[methyl(oxan-4-yl)amino]pyrimidin-5-yl}-1-[3-(pyrrolidin-1-yl)phenyl]-1H-pyrazolo[3,4-b]pyridine-6-carboxylic acid] | 608.57% | 6.29 | 356.47% | 6.29
CC(C)c1nn(-c2ccc(F)c(F)c2)c2nc(C(=O)O)cc(-c3ccc(N(C)C4CCOCC4)cc3)c12 [compound 278, 1-(3,4-difluorophenyl)-4-{4-[methyl(oxan-4-yl)amino]phenyl}-3-(propan-2-yl)-1H-pyrazolo[3,4-b]pyridine-6-carboxylic acid] | 446.55% | 6.17 | 259.1% | 6.00
